Columns and labels:
[1] = tested on: S6RP serine-240/244 phosphorylation; assay: In vitro phospho-S6 cellular assay; format: cell-based; conditions: Homo sapiens; HEK293T/17 cells, 2 hours; read-out: pS6 inhibition value (IC50), activity level
Procedure, shortened: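 HEK293T/17 cells (40,000/well for pS6RP, 80,000/well for pAkt) in DMEM, 2% FCS treated 2 h at 37 °C with 8 compound concentrations (0.1% DMSO). Lysates assayed by MesoScale sandwich electrochemiluminescence for pS6RP Ser240/244 or pAkt Ser473. Curves fitted by sigmoidal variable-slope regression.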

[2] = tested on: Akt serine-473 phosphorylation; assay: In vitro phospho-Akt cellular assay; format: cell-based; conditions: Homo sapiens; HEK293T/17 cells, 2 hours; read-out: pAkt inhibition value (IC50), activity level
Text: Activation of mTOR signaling results in phosphorylation of several downstream targets. In cells, mTOR exists in two different protein complexes. The mTOR Complex-1 (mTORC1) phosphorylates and activates S6 Kinase 1 (S6K1) and S6 Kinase 2 (S6K2) (also known as p70S6K) which then phosphorylate S6 Ribosomal Protein (S6RP) (also known as RPS6)3. S6RP is phosphorylated on serine 235, serine 236, serine 240 and serine 244 by both pS6K1 and pS6K2. The mTOR Complex-2 (mTORC2) phosphorylates AKT on serine 473 which activates the AKT signaling pathway.
The assay measures a test compound's inhibition of S6RP serine-240/244 phosphorylation and inhibition of Akt serine-473 phosphorylation in human embryonic kidney derived HEK293T/17 cells (ATCC CRL-11268).
The HEK293T/17 cell line is maintained in DMEM media (Invitrogen catalogue number 41965-039) supplemented with 10% FCS at 37° C. in a 5% CO2 humidified incubator.
Cells are seeded in 96-well plates at 40,000 cells/well (pS6RP S240/244 assay) or 80,000 cells/well (pAkt S473 assay) in 90 μl growth media (DMEM, 2% FCS). Plates are incubated for 1 hour in a humidified incubator to allow the cells to adhere. Cells are treated with 8 concentrations of test compounds or DMSO alone for controls (final DMSO concentration 0.1%) and incubated at 37° C. for 2 hours. Then 20 μl of 5× concentrated lysis buffer (750 mM NaCl, 100 mM Tris pH7.4, 5 mM ADTA, 5 mM EGTA, 5% Triton X-100) is added, plates are sealed and incubated for 15 minutes at 4° C. with gentle shaking. After cell lysis, 25 μl cell lysate is transferred to a MesoScale plate coated with an antibody to pS6RP Ser240/244 (MesoScale Discovery K150DGD-3) or an antibody to pAkt Ser 473 (MesoScale Discovery K151DGD-3). Plates have been blocked before by incubation with 150 μl MesoScale Discovery Blocking Solution-A for 1 hour at room temperature followed by washing with 150 μl 1× Tris wash buffer per well. After the transfer of the cell lysate to the MSD plate, the pS6RP (or pAkt) protein is captured on the coated antibody by incubation at room temperature for 1 hour with gentle shaking. After the capture step the plate is washed three times with 150 μl of 1× Tris wash buffer per well. Then 25 μl detection antibody conjugated with a Sulfo-Tag is added and incubated for 1 hour at room temperature with gentle shaking. Subsequently the antibody solution is removed and the plate is washed 3 times with 150 μl 1× Tris wash buffer per well and 150 μl Read buffer is added. The plates are analysed on a MSD 2400 Plate Reader (MesoScale Discovery). Data analysis is performed using nonlinear regression for a sigmoidal dose-response with a variable slope.

mTOR = mTOR (Homo sapiens, UniProt P42345); assay: biochemical
[3] = target: DNA-dependent protein kinase (DNA-PK) (Homo sapiens, UniProt P78527); assay: biochemical
Chain of DNA-dependent protein kinase (DNA-PK) (P78527 whole entry): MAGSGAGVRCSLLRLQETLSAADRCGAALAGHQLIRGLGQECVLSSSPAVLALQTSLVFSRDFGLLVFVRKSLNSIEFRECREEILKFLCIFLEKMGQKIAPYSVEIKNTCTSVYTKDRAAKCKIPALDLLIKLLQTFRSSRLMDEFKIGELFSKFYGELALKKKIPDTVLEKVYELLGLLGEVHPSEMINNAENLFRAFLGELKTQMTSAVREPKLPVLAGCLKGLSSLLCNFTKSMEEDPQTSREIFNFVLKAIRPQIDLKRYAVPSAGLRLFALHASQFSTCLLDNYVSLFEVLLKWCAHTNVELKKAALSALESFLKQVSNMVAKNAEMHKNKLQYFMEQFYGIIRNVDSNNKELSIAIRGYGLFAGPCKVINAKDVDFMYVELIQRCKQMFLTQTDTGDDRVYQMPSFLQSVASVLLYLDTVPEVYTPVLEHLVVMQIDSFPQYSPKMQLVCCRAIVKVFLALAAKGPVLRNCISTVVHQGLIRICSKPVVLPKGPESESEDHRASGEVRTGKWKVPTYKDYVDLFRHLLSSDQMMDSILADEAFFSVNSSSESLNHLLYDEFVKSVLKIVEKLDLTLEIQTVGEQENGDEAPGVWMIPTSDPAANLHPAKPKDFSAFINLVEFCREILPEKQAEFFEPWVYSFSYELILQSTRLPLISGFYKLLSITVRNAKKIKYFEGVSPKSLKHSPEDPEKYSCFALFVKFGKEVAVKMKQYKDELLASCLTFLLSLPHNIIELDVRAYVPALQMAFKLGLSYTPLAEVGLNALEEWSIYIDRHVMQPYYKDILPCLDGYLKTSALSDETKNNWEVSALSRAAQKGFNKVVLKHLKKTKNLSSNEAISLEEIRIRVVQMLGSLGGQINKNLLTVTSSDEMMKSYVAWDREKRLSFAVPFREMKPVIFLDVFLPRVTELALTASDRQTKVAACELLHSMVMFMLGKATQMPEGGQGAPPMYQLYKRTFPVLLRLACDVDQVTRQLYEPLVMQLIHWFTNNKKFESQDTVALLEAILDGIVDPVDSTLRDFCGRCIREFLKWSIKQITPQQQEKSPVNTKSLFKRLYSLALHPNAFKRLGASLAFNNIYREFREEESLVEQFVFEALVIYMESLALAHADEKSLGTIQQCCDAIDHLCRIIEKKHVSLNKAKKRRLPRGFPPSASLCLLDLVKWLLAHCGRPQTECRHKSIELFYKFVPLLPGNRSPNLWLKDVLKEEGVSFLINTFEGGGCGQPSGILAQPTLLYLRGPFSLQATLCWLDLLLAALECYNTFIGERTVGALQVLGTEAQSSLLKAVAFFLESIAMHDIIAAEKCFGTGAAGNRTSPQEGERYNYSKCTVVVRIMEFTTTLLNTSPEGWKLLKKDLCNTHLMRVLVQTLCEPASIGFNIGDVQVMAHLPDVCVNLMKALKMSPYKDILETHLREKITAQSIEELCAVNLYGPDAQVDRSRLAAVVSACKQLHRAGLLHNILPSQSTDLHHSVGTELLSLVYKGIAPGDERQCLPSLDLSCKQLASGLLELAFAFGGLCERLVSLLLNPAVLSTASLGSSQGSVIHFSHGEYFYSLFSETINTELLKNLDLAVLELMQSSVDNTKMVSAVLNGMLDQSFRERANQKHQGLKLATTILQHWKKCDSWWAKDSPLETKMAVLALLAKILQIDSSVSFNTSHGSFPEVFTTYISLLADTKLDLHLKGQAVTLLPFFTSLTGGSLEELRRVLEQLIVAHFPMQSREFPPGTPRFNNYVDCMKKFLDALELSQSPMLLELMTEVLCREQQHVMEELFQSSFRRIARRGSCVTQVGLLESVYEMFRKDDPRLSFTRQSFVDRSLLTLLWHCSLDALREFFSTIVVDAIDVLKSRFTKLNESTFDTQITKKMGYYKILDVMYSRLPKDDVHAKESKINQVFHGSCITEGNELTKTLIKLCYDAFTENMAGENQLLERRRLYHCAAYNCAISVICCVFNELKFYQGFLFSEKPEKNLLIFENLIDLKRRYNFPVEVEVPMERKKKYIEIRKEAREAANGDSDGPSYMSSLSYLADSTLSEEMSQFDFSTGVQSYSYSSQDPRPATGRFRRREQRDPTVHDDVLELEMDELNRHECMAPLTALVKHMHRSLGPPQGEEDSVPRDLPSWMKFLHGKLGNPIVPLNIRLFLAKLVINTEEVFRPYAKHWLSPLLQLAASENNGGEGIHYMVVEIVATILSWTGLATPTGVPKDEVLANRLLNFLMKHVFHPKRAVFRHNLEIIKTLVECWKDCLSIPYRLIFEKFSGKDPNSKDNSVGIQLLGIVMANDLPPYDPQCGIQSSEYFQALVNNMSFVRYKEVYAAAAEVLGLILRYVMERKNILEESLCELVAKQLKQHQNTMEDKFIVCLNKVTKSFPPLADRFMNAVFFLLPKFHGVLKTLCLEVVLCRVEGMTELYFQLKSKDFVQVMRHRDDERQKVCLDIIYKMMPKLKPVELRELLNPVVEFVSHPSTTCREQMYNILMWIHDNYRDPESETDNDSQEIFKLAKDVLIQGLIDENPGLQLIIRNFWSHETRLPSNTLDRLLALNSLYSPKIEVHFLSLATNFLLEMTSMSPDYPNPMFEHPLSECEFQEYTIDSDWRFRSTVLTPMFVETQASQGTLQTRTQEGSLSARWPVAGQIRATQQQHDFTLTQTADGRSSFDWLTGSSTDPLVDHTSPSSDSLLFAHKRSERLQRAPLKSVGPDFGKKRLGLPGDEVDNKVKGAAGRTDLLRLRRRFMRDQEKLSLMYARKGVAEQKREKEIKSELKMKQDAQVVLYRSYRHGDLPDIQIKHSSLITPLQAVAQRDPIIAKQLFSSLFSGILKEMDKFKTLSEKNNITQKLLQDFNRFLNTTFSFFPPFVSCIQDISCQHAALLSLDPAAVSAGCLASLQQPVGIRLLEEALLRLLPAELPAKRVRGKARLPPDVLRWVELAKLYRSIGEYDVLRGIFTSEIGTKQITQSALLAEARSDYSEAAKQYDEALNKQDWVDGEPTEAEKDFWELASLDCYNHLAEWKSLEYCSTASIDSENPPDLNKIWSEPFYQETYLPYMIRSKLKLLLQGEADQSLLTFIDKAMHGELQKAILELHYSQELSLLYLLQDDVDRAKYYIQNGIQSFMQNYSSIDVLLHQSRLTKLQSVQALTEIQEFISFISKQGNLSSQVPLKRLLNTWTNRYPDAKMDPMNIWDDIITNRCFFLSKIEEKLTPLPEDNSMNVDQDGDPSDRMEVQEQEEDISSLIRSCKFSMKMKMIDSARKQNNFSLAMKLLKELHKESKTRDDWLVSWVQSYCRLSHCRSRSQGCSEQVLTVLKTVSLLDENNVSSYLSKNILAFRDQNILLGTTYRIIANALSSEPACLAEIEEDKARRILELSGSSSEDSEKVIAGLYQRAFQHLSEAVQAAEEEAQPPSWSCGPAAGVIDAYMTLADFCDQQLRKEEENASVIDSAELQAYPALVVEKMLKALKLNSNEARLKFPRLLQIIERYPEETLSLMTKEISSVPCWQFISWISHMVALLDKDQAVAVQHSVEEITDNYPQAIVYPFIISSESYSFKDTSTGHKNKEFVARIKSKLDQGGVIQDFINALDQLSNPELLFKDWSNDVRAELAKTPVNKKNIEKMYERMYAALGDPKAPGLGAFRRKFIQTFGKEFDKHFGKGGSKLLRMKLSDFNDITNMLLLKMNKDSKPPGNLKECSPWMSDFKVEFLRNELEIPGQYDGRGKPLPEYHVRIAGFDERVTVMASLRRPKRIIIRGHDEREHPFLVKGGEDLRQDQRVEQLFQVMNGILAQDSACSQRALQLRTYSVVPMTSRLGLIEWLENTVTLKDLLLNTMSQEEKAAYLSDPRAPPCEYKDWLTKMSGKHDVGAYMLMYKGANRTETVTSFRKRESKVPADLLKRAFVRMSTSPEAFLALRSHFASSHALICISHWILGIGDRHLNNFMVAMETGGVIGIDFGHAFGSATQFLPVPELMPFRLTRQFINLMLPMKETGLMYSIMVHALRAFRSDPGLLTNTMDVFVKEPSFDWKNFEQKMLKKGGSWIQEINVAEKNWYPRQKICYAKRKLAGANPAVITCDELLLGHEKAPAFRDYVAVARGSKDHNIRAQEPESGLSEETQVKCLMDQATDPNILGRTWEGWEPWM

[4] = Bi-directional Caco-2 permeability assay; format: in vitro ADME; conditions: human, pH 7.4, Caco-2, 10 uM, pH7.4, read-out: Efflux ratio (ER), Papp B>A/Papp A>B
Procedure: Bi-directional Caco-2 assays to assess the permeability of compounds in the gi tract, were performed as described below.
2×10^5 cells/well were seeded in plating medium consisting of DMEM+GlutaMAXI+1% NEAA+10% FBS (FetalClone II)+1% Pen/Strep. The medium was changed every 2-3 days.
50 uM Lucifer Yellow (Sigma) was added to the donor buffer in all wells to assess integrity of the cell layers by monitoring Lucifer Yellow permeation. As Lucifer Yellow (LY) cannot freely permeate lipophilic barriers, a high degree of LY transport indicates poor integrity of the cell layer. After a 1 hr incubation at 37° C. while shaking at an orbital shaker at 150 rpm, 70 ul aliquots were taken from both apical (A) and basal (B) chambers and added to 100 ul 50:50 acetonitrile:water solution containing analytical internal standard (0.5 uM carbamazepine) in a 96 well plate.
Concentrations of compound in the samples were measured by high performance liquid-chromatography/mass spectroscopy (LC-MS/MS).
The Efflux ratio, as an indication of active efflux from the apical cell surface of Caco-2 cells, was calculated using the ratio of Papp B>A/Papp A>B.

[5] = tested on: IFNγ release in whole blood; assay: In vitro human whole blood assay (IFNγ release); format: cell-based; conditions: αCD3/αCD28 and IL-2 stimulation, 18 hours, read-out: WB inhibition value (pIC50) (converted)
Procedure, shortened: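 Na-heparin human whole blood, diluted 1.4-fold in RPMI, was preincubated 1 h at 37° C with 10 compound concentrations (0.2% DMSO), then stimulated with 1 μg/ml αCD3, 1 μg/ml αCD28 and 10 ng/ml IL-2 for 18 h. Plasma IFNγ quantified by MesoScale electrochemiluminescence immunoassay; values from variable-slope sigmoidal dose-response fit.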

Q: What does the source list for `C[C@@H]1c2c(nc(-c3ccc(NC(=O)NC4CC4)cc3)nc2N2CCOC[C@@H]2C)CS1(=O)=O` (single isomer, unassigned) [Example 9]?
A: IC50 [1]: < 0.1 µM; IC50 [2]: < 0.1 µM; IC50 (mTOR): < 0.1 µM

Q: Which results are given for `C[C@H]1COCCN1c1nc(-c2ccc(NC(=O)NC3CC3)cc2)nc2c1[C@H](C)S(=O)(=O)C2` (single isomer, unassigned) [Example 10]?
A: IC50 [1]: < 0.1 µM; IC50 [2]: < 0.1 µM; IC50 (mTOR): < 0.1 µM

Q: With `C[C@H]1COCCN1c1nc(-c2ccc(NC(=O)NC3CC3)cc2)nc2c1CSC2` [Example 1, (S)-1-cyclopropyl-3-(4-(4-(3-methylmorpholino)-5,7-dihydrothieno[3,4-d]pyrimidin-2-yl)phenyl)urea] as the molecule, how does the IC50 [1] read?
A: < 0.1 µM

Q: What about the IC50 [2] of the same molecule?
A: < 0.1 µM

Q: What about the IC50 (mTOR) of the same molecule?
A: < 0.1 µM

Q: And the IC50 [3]?
A: > 10 µM

Q: With `C[C@H]1COCCN1c1nc(-c2ccc(NC(=O)NC3CC3)cc2)nc2c1CS(=O)(=O)C2` [Example 2, (S)-1-cyclopropyl-3-(4-(4-(3-methylmorpholino)-6,6-dioxido-5,7-dihydrothieno[3,4-d]pyrimidin-2-yl)phenyl)urea] as the molecule, how does the IC50 [1] read?
A: < 0.1 µM

Q: What about the IC50 [2] of the same molecule?
A: < 0.1 µM

Q: And the IC50 (mTOR)?
A: < 0.1 µM

Q: With `C[C@H]1COCCN1c1nc(-c2ccc(NC(=O)NC3CC3)cc2)nc2c1S(=O)(=O)CC2` [Example 5, (S)-1-cyclopropyl-3-(4-(4-(3-methylmorpholino)-5,5-dioxido-6,7-dihydrothieno[3,2-d]pyrimidin-2-yl)phenyl)urea] as the molecule, how does the IC50 [1] read?
A: < 0.1 µM

Q: And the IC50 [2]?
A: < 0.1 µM

Q: What about the IC50 (mTOR) of the same molecule?
A: < 0.1 µM

Q: What about the IC50 [3] of the same molecule?
A: > 10 µM

Q: Which results are given for `CCC1COCCN1c1nc(-c2ccc(NC(=O)NC3CC3)cc2)nc2c1CS(=O)(=O)C2` (stereo not shown) [Example 27, 1-cyclopropyl-3-(4-(4-(3-ethylmorpholino)-6,6-dioxido-5,7-dihydrothieno[3,4-d]pyrimidin-2-yl)phenyl)urea]?
A: IC50 [1]: < 0.1 µM; efflux ratio at 1 h, 10 uM [4]: 25; IC50 (mTOR): < 0.1 µM; IC50 [3]: > 10 µM

Q: Which results are given for `CCNC(=O)Nc1ccc(-c2nc(N3CCOC[C@@H]3C)c3c(n2)C(C)(C)S(=O)(=O)C3)cc1` [Example 62, (S)-1-(4-(7,7-dimethyl-4-(3-methylmorpholino)-6,6-dioxido-5,7-dihydrothieno[3,4-d]pyrimidin-2-yl)phenyl)-3-ethylurea]?
A: IC50 [1]: < 0.1 µM; IC50 [5]: 0.2 µM; efflux ratio at 1 h, 10 uM [4]: 22; IC50 [3]: > 10 µM
